The subject of data set [1] is PC-3. Briefly: Antiproliferative activity against human PC-3 cells assessed as inhibition of cell growth incubated for 48 hrs by XTT assay. The format is functional, cell-based. The settings on record: PC-3, 48 h. On the technique in general: Formazan colour is commonly taken as a measure of viable cells.
Data set [2] concerns HeLa. Nature of the data set: Antiproliferative activity against human HeLa cells assessed as inhibition of cell growth incubated for 48 hrs by XTT assay. Format: functional, cell-based.
The next data set relates to MCF7. Briefly: Antiproliferative activity against human MCF7 cells assessed as inhibition of cell growth incubated for 48 hrs by XTT assay. Format: functional, cell-based. The conditions noted are these: MCF7, 48 h.
In data set [3] the test system is PC-3. Briefly: Inhibition of colony formation in human PC-3 cells at IC50 incubated for 2 weeks with culture medium replacement for every 3 days by crystal violet staining based analysis. Format: functional, cell-based.
Data set [4] deals with HeLa. Nature of the data set: Inhibition of colony formation in human HeLa cells at IC50 incubated for 2 weeks with culture medium replacement for every 3 days by crystal violet staining based analysis. The format is functional, cell-based.
The next data set concerns HFF-1. Nature of the data set: Cytotoxicity against HFF-1 cells assessed as reduction in cell viability at 1 to 2 uM incubated for 48 hrs by XTT assay. Format: toxicity, cell-based. The settings on record: human, hff-1, 48 h, dose 1-2 µM.
Data set [5] deals with HeLa. Nature of the data set: Induction of cell cycle arrest in human HeLa cells assessed as accumulation of cells at G2/M phase at 1 uM incubated for 18 hrs by FACS flow cytometry analysis (reference value: 12.66 +/- 0.92 %). Format: functional.
Data set [6] has as its system PC-3. Nature of the data set: Induction of cell cycle arrest in human PC-3 cells assessed as accumulation of cells at S phase at 1 uM incubated for 6 hrs by FACS flow cytometry analysis (reference value: 35.06 +/- 1.85 %). Format: functional.
Data set [7] has as its system PC-3. Briefly: Induction of cell cycle arrest in human PC-3 cells assessed as accumulation of cells at G2/M phase at 1 uM incubated for 6 hrs by FACS flow cytometry analysis (reference value: 20.74 +/- 1.93 %). Format: functional. Background: In flow cytometry, cells or beads pass a laser one at a time.
The test system of data set [8] is HeLa. Briefly: Induction of cell cycle arrest in human HeLa cells assessed as accumulation of cells at S phase at 1 uM incubated for 18 hrs by FACS flow cytometry analysis (reference value: 17.41 +/- 1.16 %). Format: functional.
The test system of data set [9] is PC-3. Nature of the data set: Induction of cell cycle arrest in human PC-3 cells assessed as accumulation of cells at G1 phase at 1 uM incubated for 6 hrs by FACS flow cytometry analysis (reference value: 44.2 +/- 2.21 %). Format: functional.
For data set [10], the system named is HeLa. Briefly: Induction of cell cycle arrest in human HeLa cells assessed as accumulation of cells at G1 phase at 1 uM incubated for 18 hrs by FACS flow cytometry analysis (reference value: 69.94 +/- 1.25 %). Format: functional.
Data set [11] relates to PC-3. Briefly: Induction of cell cycle arrest in human PC-3 cells assessed as accumulation of cells at G1 phase at 1 uM incubated for 12 hrs by FACS flow cytometry analysis (reference value: 44.2 +/- 2.01 %). Format: functional.
Data set [12] has as its system HeLa. Nature of the data set: Induction of cell cycle arrest in human HeLa cells assessed as accumulation of cells at G2/M phase at 1 uM incubated for 6 hrs by FACS flow cytometry analysis (reference value: 12.66 +/- 0.88 %). The format is functional.
The test system of data set [13] is HeLa. Nature of the data set: Induction of apoptosis in human HeLa cells assessed as viable cells at 1 uM incubated for 24 hrs by Annexin V-FITC/7-AAD staining based flow cytometric analysis (reference value: 85.6 +/- 1.061%). The conditions noted are these: read-out: Activity. The format is functional.
The subject of data set [14] is HeLa. Briefly: Induction of apoptosis in human HeLa cells assessed as early apoptotic cells at 1 uM incubated for 24 hrs by Annexin V-FITC/7-AAD staining based flow cytometric analysis (reference value: 2.7 +/- 0.424 %). The format is functional.
The subject of data set [15] is HeLa. Briefly: Induction of cell cycle arrest in human HeLa cells assessed as accumulation of cells at S phase at 1 uM incubated for 6 hrs by FACS flow cytometry analysis (reference value: 17.41 +/- 0.96 %). The format is functional.
Data set [16] has as its system HeLa. Nature of the data set: Induction of apoptosis in human HeLa cells assessed as dead cells at 1 uM incubated for 24 hrs by Annexin V-FITC/7-AAD staining based flow cytometric analysis (reference value: 0.6 +/- 0.707 %). The format is functional.
The subject of the next data set is NB1. Briefly: Cytotoxicity against human NB1 cells immortalized with hTERT plasmid assessed as reduction in cell viability at 1 to 2 uM incubated for 48 hrs by XTT assay. The format is toxicity, cell-based. The conditions noted are these: nb1, 48 h, dose 1-2 µM.
The test system of data set [17] is HeLa. Briefly: Induction of cell cycle arrest in human HeLa cells assessed as accumulation of cells at G1 phase at 1 uM incubated for 6 hrs by FACS flow cytometry analysis (reference value: 69.94 +/- 1.71 %). Format: functional.
Data set [18] addresses T1, Tubulin (Homo sapiens) (UniProt P68371+Q9H4B7+P0DPH7+P68366+Q13509+Q71U36+P04350+Q3ZCM7+P07437+P68363+Q9BQE3+Q6PEY2+Q13885+Q9BVA1+Q9BUF5). Nature of the data set: Inhibition of tubulin polymerization in human HeLa cells assessed as abnormal microtubule network at 0.5 uM incubated for 6 hrs by DAPI staining based fluorescence microscopic analysis. Format: cell-based.
For data set [19], the system named is PC-3. Briefly: Induction of cell cycle arrest in human PC-3 cells assessed as accumulation of cells at S phase at 1 uM incubated for 12 hrs by FACS flow cytometry analysis (reference value: 35.06 +/- 1.36 %). The format is functional.
Data set [20] concerns the target T1, Tubulin (Homo sapiens). Briefly: Inhibition of tubulin polymerization in human HeLa cells assessed as irregular cell morphology at 0.5 uM incubated for 6 hrs by DAPI staining based fluorescence microscopic analysis.
Data set [21] concerns the target T1, Tubulin (Homo sapiens). Briefly: Inhibition of tubulin polymerization in human HeLa cells assessed as aberrations in mitotic spindle and nucleus at 0.5 uM incubated for 6 hrs by DAPI staining based fluorescence microscopic analysis. Format: cell-based.
The test system of data set [22] is PC-3. Briefly: Induction of cell cycle arrest in human PC-3 cells assessed as accumulation of cells at G2/M phase at 1 uM incubated for 12 hrs by FACS flow cytometry analysis (reference value: 20.74 +/- 1.95 %). Format: functional.
Data set [23] concerns HeLa. Briefly: Induction of apoptosis in human HeLa cells assessed as late apoptotic cells at 1 uM incubated for 24 hrs by Annexin V-FITC/7-AAD staining based flow cytometric analysis (reference value: 11.1 +/- 0.778 %). The format is functional.

Active and inactive are the calls of the source. No cut-off for these calls is given here.

The term IC50 denotes the point on the concentration scale where inhibition reaches its midpoint.

As for `Cc1[nH]c2c(c1-c1nnc(-c3ccc(Cl)c(Cl)c3)s1)Cc1ccccc1-2`, the IC50 in the data set on PC-3 [1], in the data set on HeLa [2] and in the data set with MCF7 was greater than 10 µM throughout.

As for `COc1cc(-c2nnc(-c3c(C)[nH]c4c3Cc3ccccc3-4)s2)cc(OC)c1OC`, the IC50 with PC-3 [1], in the data set with HeLa [2] and in the data set on MCF7 was greater than 10 µM throughout.

For `COc1ccc(-c2nnc(-c3c(C)[nH]c4c3Cc3ccccc3-4)[se]2)cc1`, the IC50 in the data set on PC-3 [1], with HeLa [2] and in the data set on MCF7 was greater than 10 µM in each case.

Take `Cc1[nH]c2c(c1-c1nnc(-c3cccc(Cl)c3)[se]1)Cc1ccccc1-2`: the IC50 in the data set with PC-3 [1] was 0.548 µM; in the data set with HeLa [2], 0.083 µM; with MCF7, 0.216 µM. The inhibition entry in the data set on PC-3 [3], with HeLa [4], on Tubulin (Homo sapiens) [18], at Tubulin (Homo sapiens) [20] and at Tubulin (Homo sapiens) [21] was “Active” in each case. The Activity result in the data set on HFF-1 is on record as “Non-Toxic”; with HeLa [5] it was 89.4%; in the data set on PC-3 [6] it was 54.7%; in the data set with PC-3 [7], 34.87%; in the data set with HeLa [8], 9.44%; in the data set with PC-3 [9] it was 10.43%. Moreover, the Activity with HeLa [10] was determined as 1.15%; in the data set with PC-3 [11] it was 1.87%; in the data set with HeLa [12], 23.63%; in the data set with HeLa [14], 2.7%; in the data set with HeLa [15] it was 48.5%; with HeLa [16], 1.8%. Moreover, the Activity result was “Non-Toxic” with NB1; 27.87% in the data set with HeLa [17]; 8.65% in the data set with PC-3 [19]; 89.48% in the data set with PC-3 [22]; 15.4% with HeLa [23]. Further, in the data set with HeLa [13], the viability at 1 µM was 80.1%.

In the case of `COc1cc(-c2nnc(-c3c(C)[nH]c4c3Cc3ccccc3-4)[se]2)cc(OC)c1OC`, the IC50 in the data set on PC-3 [1], with HeLa [2] and with MCF7 was greater than 10 µM in each case.

Consider `Cc1[nH]c2c(c1-c1nnc(-c3ccc(Cl)cc3)s1)Cc1ccccc1-2`, for which the IC50 in the data set with PC-3 [1], in the data set with HeLa [2] and in the data set on MCF7 was greater than 10 µM each time.

For `Cc1[nH]c2c(c1-c1nnc(-c3ccccc3)s1)Cc1ccccc1-2`, the IC50 with PC-3 [1] is 0.38 µM; in the data set on HeLa [2], 0.324 µM; in the data set with MCF7 it was 0.555 µM. Further, the inhibition result with PC-3 [3], in the data set with HeLa [4], on Tubulin (Homo sapiens) [18], on Tubulin (Homo sapiens) [20] and on Tubulin (Homo sapiens) [21] was “Active” in each case. Further, the Activity entry is recorded as “Non-Toxic” in the data set on HFF-1; 56.51% in the data set on HeLa [5]; 21.51% in the data set on PC-3 [6]; 34.04% in the data set with PC-3 [7]; 20.62% with HeLa [8]; 44.45% in the data set on PC-3 [9]. Moreover, the Activity in the data set with HeLa [10] amounted to 22.86%; in the data set with PC-3 [11], 15.37%; in the data set with HeLa [12], 33.03%; in the data set with HeLa [14] it was 9.2%; in the data set on HeLa [15], 40.38%; in the data set on HeLa [16], 4.3%. The Activity entry in the data set on NB1 was “Non-Toxic”; in the data set with HeLa [17], 26.59%; in the data set with PC-3 [19] it was 23.79%; in the data set with PC-3 [22], 60.84%; in the data set on HeLa [23], 22.7%. For the same compound, the viability at 1 µM in the data set on HeLa [13] is 63.8%.

As for `Cc1[nH]c2c(c1-c1nnc(-c3ccccc3Cl)s1)Cc1ccccc1-2`, the IC50 worked out at 0.176 µM with PC-3 [1], 0.145 µM in the data set on HeLa [2] and 0.468 µM with MCF7. The inhibition result in the data set with PC-3 [3], in the data set with HeLa [4], at Tubulin (Homo sapiens) [18], on Tubulin (Homo sapiens) [20] and at Tubulin (Homo sapiens) [21] was “Active” each time. The Activity entry is “Non-Toxic” in the data set on HFF-1; 88.99% with HeLa [5]; 51.2% in the data set on PC-3 [6]; 37.68% in the data set with PC-3 [7]; 9.52% in the data set with HeLa [8]; 11.13% in the data set on PC-3 [9]. Also, the Activity in the data set on HeLa [10] was 1.49%; in the data set on PC-3 [11] it was 1.71%; in the data set on HeLa [12], 3.84%; in the data set on HeLa [14], 31.9%; in the data set on HeLa [15] it was 68.91%; in the data set on HeLa [16] it was 5.9%. Further, the Activity result in the data set with NB1 is “Non-Toxic”; in the data set with HeLa [17], 27.25%; in the data set on PC-3 [19], 5.55%; in the data set on PC-3 [22], 92.74%; in the data set on HeLa [23], 17.4%. Further, in the data set with HeLa [13], the viability at 1 µM is 44.8%.

On to `Cc1[nH]c2c(c1-c1nnc(-c3ccc(Cl)c(Cl)c3)[se]1)Cc1ccccc1-2`, for which the IC50 in the data set on PC-3 [1], in the data set on HeLa [2] and with MCF7 was greater than 10 µM throughout.

Consider `Cc1[nH]c2c(c1-c1nnc(-c3ccc(C(C)(C)C)cc3)[se]1)Cc1ccccc1-2`, for which the IC50 in the data set with PC-3 [1], with HeLa [2] and in the data set with MCF7 was greater than 10 µM each time.

For `Cc1[nH]c2c(c1-c1nnc(-c3cccc(Cl)c3)s1)Cc1ccccc1-2`, the IC50 with PC-3 [1], in the data set with HeLa [2] and with MCF7 was greater than 10 µM each time.

`Cc1[nH]c2c(c1-c1nnc(-c3ccc(C(C)(C)C)cc3)s1)Cc1ccccc1-2`: the IC50 with PC-3 [1], with HeLa [2] and with MCF7 was greater than 10 µM in each case.

`COc1ccc(-c2nnc(-c3c(C)[nH]c4c3Cc3ccccc3-4)s2)cc1`: the IC50 with PC-3 [1], in the data set on HeLa [2] and in the data set on MCF7 was greater than 10 µM in each case.

Consider `Cc1[nH]c2c(c1-c1nnc(-c3ccc(Cl)cc3)[se]1)Cc1ccccc1-2`, for which the IC50 in the data set with PC-3 [1], with HeLa [2] and in the data set with MCF7 was greater than 10 µM in each case.

The values above are taken from ChEMBL document CHEMBL5113401, “Novel 1,3,4-oxadiazole chalcogen analogues: Synthesis and cytotoxic activity” (Eur J Med Chem, 2022).
